According to patent publication US5637731A (priority 1996, dated 1997):
Where “and” joins values, the source holds several entries; their conditions need not be identical. Equal values may be shown once.

Assays:
SDAT patients = settings: cited from earlier work
[1] = Stability remark in Table V; format: physicochemical; settings: in place of the optical rotation
[2] = tested on: peripheral acetylcholine-like effects; assay: Side effect profile: in vivo overt effects (salivation, tremor, diarrhea) after oral administration; design: species or system rat
From the text: The use of the radioligand binding assays (^3 H-QNB and ^3 H-CD) to characterize the hydroxylated oxotremorine derivatives provides a useful first approximation for,the evaluation of the muscarinic agonist-like profile of a test compound. However, in using a prodrug methodology, intrinsic activity will not be observed until in vivo hydrolysis or metabolism to the active compound occurs. Therefore, radioligand binding data, performed on the carbonyl derivatives, will not provide leading information. As a result, the observed overt effects after oral administration to rats of the test carbonyl derivative, relative to its corresponding hydroxylated oxotremorine compound, became the primary in vivo pharmacological measure. These in vivo overt effects are attributed to the peripheral acetylcholine-like effects of the compound, such as salivation, tremor and diarrhea. The in vivo overt effects also providing dosing information for the behavioral tests of cognitive improvement.

Compound | Side Effect Profile minimum effective dose (MED) ([2]; (rat) po) | other results
COC(=O)C1=CCCN(C)C1 [arecoline] | – | improvement in SDAT patients compared to physostigmine (SDAT patients): more consistent improvement when compared to the anticholinergic inhibitor physostigmine
O=C1[C@H](O)CCN1CC#CCN1CCC1 [Example 33, (R)-3-Hydroxy-1-[4-(1-azetidinyl)-2-butynyl]-2-pyrrolidinone] | – | stability (in words) [1]: not stable
CCCCCCCC(=O)O[C@H]1CCN(CC#CCN(C)C)C1=O [(S)-Octanoic acid 1-[4-(dimethylamino)-2-butynyl]-2-oxo-3-pyrrolidinyl ester] | 8.0 μ mol/kg | –
CCCCCC(=O)O[C@H]1CCN(CC#CCN2CCCC2)C1=O [(S)-Hexanoic acid 2-oxo-1-[4-(1-pyrrolidinyl)-2-butynyl]-3-pyrrolidinyl ester] | 1.8 μ mol/kg | –
CCCC(=O)O[C@@H]1CCN(CC#CCN(C)C)C1=O [(R)-Butanoic acid 1-[4-(dimethylamino)-2-butynyl]-2-oxo-3-pyrrolidinyl ester] | 127 μ mol/kg | –
CCCCCCCC(=O)O[C@@H]1CCN(CC#CCN(C)C)C1=O [(R)-Octanoic acid 1-[4-(dimethylamino)-2-butynyl]-2-oxo-3-pyrrolidinyl ester] | 508 μ mol/kg | –
O=C1[C@@H](O)CCN1CC#CCN1CCC1 [Example 31, (S)-3-Hydroxy-1-[4-(1-azetidinyl)-2-butynyl]-2-pyrrolidinone] | – | stability (in words) [1]: not stable
CCCCCC(=O)O[C@@H]1CCN(CC#CCN(C)C)C1=O [(R)-Hexanoic acid 1-[4-(dimethylamino)-2-butynyl]-2-oxo-3-pyrrolidinyl ester] | 255 μ mol/kg | –
CCOC(=O)O[C@H]1CCN(CC#CCN(C)C)C1=O [(S)-1-[4-(Dimethylamino)-2-butynyl]-2-oxo-3-pyrrolidinyl carbonic acid ethyl ester] | 2.2 μ mol/kg | –
CCOC(=O)O[C@@H]1CCN(CC#CCN(C)C)C1=O [(R)-1-[4-(Dimethylamino)-2-butynyl]-2-oxo-3-pyrrolidinyl carbonic acid ethyl ester] | 127 μ mol/kg and 254 μ mol/kg | Side Effect Profile minimum effective dose (MED) ([2]; (rat) po; listed as R)-1-[4-(Dimethylamino)-2-butynyl]-2-oxo-3-pyrrolidinyl carbonic acid ethyl este): 258 μ mol/kg
